Data from patent publication US7915198B2, “Aqueous solution of non-colloidal silicic acid and boric acid” (Sabalo, N.V., priority 2002, dated 2011).

Tests used:
Phytophthora infestan = assay type: in vivo, potato plants (strain Bintje)
Experimental: (§1) Solutions of boric acid in water were prepared containing different concentrations of boric acid: 1%, 0.1%, 0.03%, 0.01%, 0.005%, 0.0003% and 0.0001% (W/V). Sodium silicate (10% Si) was diluted tenfold in water and further 1000 times diluted in the solutions or in water with pH 4.5 after dilution, resulting in a final silicon concentration of 0.0010 wt. % (or 10 μg/ml Si)
(§2) All solutions were filtered on a 0.1μ membrane filter. […] The solutions were used instantaneously. A potato garden was used to test the compounds against infection with Phytophthora infestan: 20 m^2 culture were used for testing and each m^2 contained 6 potato plants (strain Bintje) of two months old. Two times a week plant leaves were sprayed with the different solutions (about 10 liters/are). Four square meters were used as placebo.

[1] = tested on: potato plants (strain Bintje)
Experimental: as §1, §2

Compound: OB(O)O [boric acid]
- antifungal effect (Phytophthora infestan; 1%, 0.1% and 0.03% boric acid): no antifungal effect
- fungal infection (Phytophthora infestan; From 0.003% boric acid on): fungal infection decreased
- toxic reactions (necrotic effects on leaves such as black spots, holes) ([1]; 1%, 0.1% and 0.03% boric acid, after 1 week treatment): toxic reactions
- strength of plant leaves ([1]; From 0.003% boric acid on): plant leaves were stronger
